Columns and labels:
[1] = system: M6PR; assay: Cell surface M6PR expression by flow cytometry in WM983B melanoma cells; format: cell-based, human
Experimental: (§1) Human studies were approved by The Wistar Institute IRB. Peripheral blood was collected from healthy volunteers after obtaining informed consent. Animal experiments were approved by The Wistar Institute Animal Care and Use Committee. The mice were kept under pathogen free conditions. Experiments were carried out using female NSG mice or female and male nonobese diabetic/severe combined immunodeficient (NOD/SCID) mice, obtained from the mouse facility of the Wistar Institute and Charles River Laboratories, respectively. WM35 human melanoma and HLA-matched human tumor infiltrating lymphocytes (TIL) were generated at H. Lee Moffitt Cancer Center and Research Institute, Tampa, Fla., USA). […] Louis, Mo.) and 1% Pen/Strep (Corning; Cat. no. 30-002-Cl) at 37° C., 5% CO2. PLX4720-resistant cells were kept in cell culture media supplemented with 1 μM PLX4720 to keep these cells resistant against the drug. 350 μg/mL Hygromycin B (Invitrogen; […] Tumor cell lines were tested for mycoplasma contamination by using Universal Mycoplasma detection kit (ATCC) regularly. […] Cat. no. […] Cat. no. S2673). Hypoxia (0.5% 02) was maintained using hypoxic chamber (BioSpherix). […] Cells were incubated with Aqua dead cell staining kit (Thermo Fischer Scientific; Cat. no. […] Cat. no. 565105; clone no. MEM-238) or its isotype (BD Biosciences; Cat. no. 557732; clone no. MOPC-21) at 4° C. for 20 minutes. Cells were fixed using 1% paraformaldehyde for 20 minutes at 4° C. before running them on LSR14. Data was analyzed by FlowJo software (Tree Star).

[2] = system: WM35 cells; assay: Granzyme B (GrzB) uptake by WM35 cells; format: cell-based, human; conditions: overnight PLX4720, then inactive GrzB for an hour
Experimental: Cells were then stained with Aqua dead cell staining kit (Thermo Fischer Scientific) for 15 min at 4° C. fixed in fixation buffer (BD Cytofix/Cytoperm; Cat. no. 51-2090). Granzyme B antibody (Cat. no. 561142) or its isotype control (BD Bioscience; Cat. no. 555749) were used. Stained cells were run on LSR14. Data was analyzed by FlowJo software (Tree Star).

[3] = system: M6PR; assay: IHC staining of M6PR in WM35 tumors in NOD/SCID mice; format: in vivo; conditions: for tumor M6PR levels by immunohistochemistry: 50 mg/kg oral gavage
Experimental: (§2) In order to establish xenograft models, cultured WM35, WM35-BR, WM983B-BR-pAHygCMV2 and WM983B-BR-M6PR/IGF2R cells were harvested, suspended in sterile PBS, mixed in 2:1 ratio with Matrigel and injected subcutaneously into the left flank of mice (1-3×10^6 cells per mouse). PLX4720 was administered daily at dose 50 mg/kg for 10 days via oral gavage. As a control, mice treated with vehicle alone (2% DMSO, 50% PEG 300, 5% Tween 80) were used. Treatments were started when tumors were 0.5-0.8 cm in diameter.
Tumor tissues were harvested, fixed overnight with 4% paraformaldehyde (Electron Microscopy Science; Cat. no. 15710) at 4° C., embedded in paraffin blocks and 4-5 μm thick sections of the tissue were prepared and stained with polyclonal goat M6PR/IGF2R primary antibody (R&D Systems; Cat. no. AF2447; 5 μg/mL per samples) O/N at 4° C. Biotinylated 2nd antibody in 1:200 dilution was used for 30 min at RT followed by application of ABC solution ([…] and biotinylated horseradish peroxidase) for 30 min at RT. DAB 0.05% solution was applied for 3-4 min at RT. Hematoxylin was used for counterstaining the nucleus. Images were analyzed using Nis-Elements Ar (Advanced Research) Nikon 80i Upright Microscope with 40×N.A. objective. Each slide was scanned, images were manually captured at separate X, Y locations and a multipoint ND document was created point by point. A threshold value was defined for each image (for brown M6PR staining) using the single point selection tool. Results were exported to Excel for further analysis. (Acquisition Software: Nikon NIS-Elements Br (Basic research) 4.0, Camera Name: DS-Ri1-U3 40× Objective, Numerical Aperture: 0.95, Camera Settings: Format: 1280×1024 Fine, Exposure: ME 80 ms (−+0.0 EV))
Since hypoxia is an important component of the tumor microenvironment, we evaluated the effect of hypoxia on PLX4720-induced M6PR up-regulation. WM983B melanoma cells were exposed to 0.5% 02 during PLX4720 treatment. […] To understand the effect of PLX4720 on M6PR expression in vivo, WM35 tumor cells were injected s.c. into immune deficient NOD/SCID mice. When tumors reached 0.5-0.8 cm in diameter, mice were treated with vehicle or 50 mg/kg PLX4720 by oral gavage for 3 or 5 consecutive days.

[4] = system: M6PR; assay: M6PR staining in patient derived xenografts (PDX); format: in vivo, mice; conditions: PDX from four patients (4237, 3929, 4070, 4298); treated for 3 weeks
Experimental: FIGS. 11A, 11B, and 11 C show M6PR expression in patients treated with vemurafenib plus ACT with TIL. […] Mice with PDX were left untreated for 4 weeks (untreated), or treated for 3 weeks with corresponding single agent BRAFi (PLX-PLX4720) or combination with MEKi (CPLX-PLX4720 and PD0325901). Tissues were stained for M6PR and intensity of staining was assessed in 8 fields. Typical example of staining (scale bar=25 μm) and statistical analysis are shown. Intensity was normalized to untreated samples. Mean and SD for 8 fields are shown. P values were calculated in unpaired Student's t-test. […] H-score results are shown. P value is shown in paired twotailed Student's t test.
To test the effect of therapy on M6PR expression in clinical samples, we established patient derived xenografts (PDX) from four patients who were either treatment naïve (4237, 3929), or progressed on BRAFi (4070) or combination of BRAFi and MEKi (4298). Mice with PDX were left untreated or treated for 3 weeks with single agent BRAFi (PLX-PLX4720) or combination with MEKi (CPLXPLX4720 and PD0325901).

[5] = system: M6PR; assay: Cell surface M6PR expression by flow cytometry in WM35 melanoma cells; format: cell-based, human
Experimental: as §1, with “MOPC-21) at 4° C. for 20 minutes. Cells were fixed using 1% paraformaldehyde for 20 minutes at 4° C. before running them on LSR14.” left out

[6] = system: M6PR; assay: Cell surface M6PR expression by flow cytometry in PLX4720-resistant WM35-BR cells; format: cell-based, human; conditions: 1 μM or 10 μM PLX4720
Experimental: WM35 human melanoma and HLA-matched human tumor infiltrating lymphocytes (TIL) were generated at H. Lee Moffitt Cancer Center and Research Institute, Tampa, Fla., USA). Human melanoma cells lines WM983B and WM983B-BR were maintained in Dulbecco's Modified Eagles medium (DMEM) (Gibco), other human melanoma cell lines were maintained in RPMI medium supplemented with 10% fetal bovine serum (FBS, Sigma-Aldrich, St. Louis, Mo.) and 1% Pen/Strep (Corning; Cat. no. 30-002-Cl) at 37° C., 5% CO2. PLX4720-resistant cells were kept in cell culture media supplemented with 1 μM PLX4720 to keep these cells resistant against the drug. 350 μg/mL Hygromycin B (Invitrogen; Cat. no. 10687010) was kept in the culture media of WM983B-BR-pAHygCMV2, WM983B-BR-M6PR/IGF2R, WM35-pAHygCMV2, WM35-M6PR/IGF2R cells after transfection. […]
M6PR expression levels were detected by flow cytometry. […] Data was analyzed by FlowJo software (Tree Star).
To maintain consistency with the results obtained on sensitive cell lines and to better assess the effect of BRAFi on the sensitivity of tumor cells to CTLs, we generated an additional BRAFi resistant cell line WM35-BR by exposing WM35 cells to increased concentrations of PLX4720. Resistant cell lines (WM983B-BR and WM35-BR) were treated with 1 μM or 10 μM PLX4720 for different times, and cell surface M6PR levels were determined by flow cytometry.

[7] = system: WM35-BR cells; assay: Tumor growth of WM35-BR xenografts in NOD/SCID mice; format: in vivo; conditions: PLX4720 50 mg/kg for 10 days, TIL i.v. twice at a 4 day interval
Experimental: as §2
We next tested whether PLX-induced M6PR up-regulation on the cell surface of resistant cells sensitized them to HLA-matched TIL. […] We asked whether BRAFi could sensitize resistant tumors to TILs in vivo. WM35-BR cells were injected subcutaneously to the flanks of immune deficient NOD/SCID mice and when tumors became palpable, mice were split to 4 groups. Mice treated with vehicle alone, mice treated with 50 mg/kg PLX4720 for 10 days, mice treated with CD8+ T-cell enriched TIL i.v. twice at a 4 day interval and mice treated with combination of PLX4720 and TILs.

[8] = 1 μM, 2.5, 5 or 10 μM PLX4720, within 6 hours

CCCS(=O)(=O)Nc1ccc(F)c(C(=O)c2c[nH]c3ncc(Cl)cc23)c1F [PLX4720]
M6PR on the cell surface [1, 8]: substantial dose-dependent up-regulation of M6PR on the cell surface | expression of M6PR during hypoxia ([1]; 0.5% O2, within 3 hours after starting treatment, 10 μM): significant (p<0.0001) increase in the expression of M6PR | M6PR up-regulation, hypoxia compared with normoxia ([1]; 0.5% O2 vs normoxia): more pronounced under hypoxic conditions than in normoxia | M6PR expression twenty-four hours after starting treatment ([1]; 24 hours): no up-regulation of M6PR expression | M6PR expression on the cell surface ([1]; O/N, different concentrations of PLX4720): substantial up-regulation of M6PR | time to maximum M6PR up-regulation ([1]; hypoxic conditions): ≤ 12 h | GrzB uptake by tumor cells [2]: significant up-regulation of GrzB uptake | tumor M6PR levels by immunohistochemistry ([3]; 3 days after start of the treatment): significant increase in tumor M6PR levels | tumor M6PR levels by immunohistochemistry ([3]; 5 days after start (2 days later)): further increased | tumor M6PR expression after finish of the treatment ([3]; 3 days after finish of the treatment): remained high | tumor M6PR expression after finish of the treatment ([3]; day 6 after finish): slight decrease | tumor M6PR expression after finish of the treatment ([3]; day 9 after finishing the treatment): returned to the pretreatment level | M6PR in tumors (PDX) [4]: marked up-regulation of M6PR in tumors | M6PR on the cell surface [5, 8]: substantial dose-dependent up-regulation of M6PR on the cell surface | cell surface M6PR after overnight treatment ([5]; overnight): M6PR up-regulation was confirmed | M6PR on the cell surface [6]: further substantial up-regulation of MP6R on the cell surface | tumor growth [7]: did not affect tumor growth

Source: patent publication US20220125839A1, “COMBINATION OF T-CELL THERAPY AND TARGETED THERAPY FOR TREATING THERAPY-RESISTANT MELANOMA WITH MUTATIONS IN THE BRAF GENE” (H. LEE MOFFITT CANCER CENTER AND RESEARCH INSTITUTE, INC., priority 2019, published 2022)
